Measurements published in patent US6737383B1, “Herbicidal oxadiazolidines” (priority 1999, dated 2004).

Legend:
bamyardgrass = test: Test B flood test barnyardgrass; type: in vivo, Echinochloa crus-galli
Method in brief: (§1)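 Read-out is a visual response score from 0 (no effect) to 10 (complete control), assigned by comparison with untreated controls. Treatment was applied at the 2-leaf stage, and plants stayed in the greenhouse for twelve to sixteen days before scoring.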

surinam grass = test: Test B pre/postemergence surinam grass; type: in vivo, Brachiaria decumbens
Method in brief: (§2)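 Response is a visual 0-to-10 score relative to untreated plants, where 0 means no effect and 10 means complete control, taken twelve to sixteen days after application. Treatments went onto soil at planting and onto foliage of 1- to 4-leaf plants, using a surfactant-containing non-phytotoxic solvent.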

velvetleaf = test: Test B pre/postemergence velvetleaf; type: in vivo, Abutilon theophrasti; settings: for Plant response rating, Velvetleaf: Rate 250 g/ha
Method in brief: as §2

giant foxtail = test: Test B pre/postemergence giant foxtail; type: in vivo, Setaria faberii
Method in brief: as §2

rice = test: Test B flood test rice; type: in vivo, Oryza sativa
Method in brief: as §1

cocklebur = test: Test B pre/postemergence cocklebur; type: in vivo, Xanthium strumarium
Method in brief: as §2

rape = test: Test B pre/postemergence rape; type: in vivo, Brassica napus
Method in brief: as §2

sugar beet = test: Test B pre/postemergence sugar beet; type: in vivo, Beta vulgaris; settings: for Plant response rating, Sugarbeets: Rate 250 g/ha
Method in brief: as §2

smallflower flatsedge = test: Test B flood test smallflower flatsedge; type: in vivo, Cyperus difformis
Method in brief: as §1

soybean = test: Test B pre/postemergence soybean; type: in vivo, Glycine max
Method in brief: as §2

corn = test: Test B pre/postemergence corn; type: in vivo, Zea mays
Method in brief: as §2

crabgrass = test: Test B pre/postemergence crabgrass; type: in vivo, Digitaria sanguinalis
Method in brief: as §2

purple nutsedge = test: Test B pre/postemergence purple nutsedge; type: in vivo, Cyperus rotundus
Method in brief: as §2

blackgrass = test: Test B pre/postemergence blackgrass; type: in vivo, Alopecurus myosuroides
Method in brief: as §2

duck salad = test: Test B flood test duck salad; type: in vivo, Heteranthera limosa
Method in brief: as §1

bedstraw = test: Test B pre/postemergence bedstraw; type: in vivo, Galium aparine
Method in brief: as §2

wheat = test: Test B pre/postemergence wheat; type: in vivo, Triticum aestivum; settings: for Plant response rating, Wheat: Rate 250 g/ha
Method in brief: as §2

[1] = Postemergence, Rate 62 g/ha, scale 0 to 10, 0 is no effect, 10 is complete control
[2] = Rate 500 g/ha, listed under Postemergence (flood test species), scale 0 to 10, 0 no effect, 10 complete control
[3] = flood test, listed under Postemergence, Rate 250 g/ha, scale 0 to 10, 0 no effect, 10 complete control
[4] = Postemergence, Rate 250 g/ha, scale 0 to 10, 0 no effect, 10 complete control
[5] = Preemergence, Rate 62 g/ha, scale 0 to 10 (0 no effect, 10 complete control)
[6] = Preemergence, Rate 125 g/ha, scale 0 to 10 (0 no effect, 10 complete control)
[7] = Preemergence, Rate 250 g/ha, scale of 0 to 10 where 0 is no effect and 10 is complete control
[8] = Preemergence, Rate 500 g/ha, scale 0 to 10 (0 no effect, 10 complete control)
[9] = Rate 125 g/ha, Postemergence, scale 0 to 10, 0 no effect, 10 complete control
[10] = Postemergence, Rate 125 g/ha, scale of 0 to 10 where 0 is no effect and 10 is complete control
[11] = Preemergence, Rate 125 g/ha, 0 is no effect, 10 is complete control
[12] = Preemergence, scale of 0 to 10 where 0 is no effect and 10 is complete control
[13] = Rate 62 g/ha, Postemergence, scale of 0 to 10 where 0 is no effect and 10 is complete control
[14] = Postemergence, scale 0 to 10, 0 is no effect, 10 is complete control
[15] = Rate 500 g/ha, Postemergence, scale 0 to 10, 0 no effect, 10 complete control
[16] = Postemergence (flood test species), Rate 125 g/ha, scale of 0 to 10 where 0 is no effect and 10 is complete control
[17] = Rate 62 g/ha, Postemergence section, flood test species, scale of 0 to 10 where 0 is no effect and 10 is complete control
[18] = Rate 250 g/ha, Postemergence (flood test), scale 0 to 10, 0 is no effect, 10 is complete control

In the case of `CC(C)N(C(=O)n1oc(=O)n(C2CCCCC2)c1=O)c1ccccc1` [Compound 112], the “Barnyardgrass plant response rating” value (bamyardgrass; [1]) is reported as 0, the “Barnyardgrass plant response rating” value (bamyardgrass; Rate 125 g/ha, Postemergence section (flood test species), scale 0 to 10, 0 no effect, 10 complete control) is reported as 0 and the “Barnyardgrass plant response rating” value (bamyardgrass; [2]) is reported as 0. The “Barnyardgrass plant response rating” value (bamyardgrass; [3]) was 0, the “B. signalgrass plant response rating” value (surinam grass; [1]) was 0 and the “B. signalgrass plant response rating” value (surinam grass; [4]) was 0. The “B. signalgrass plant response rating” value (surinam grass; [5]) was 0, the “Plant response rating, B. signalgrass” value (surinam grass; [6]) was 0 and the “Plant response rating, B. signalgrass” value (surinam grass; [7]) was 3. The “B. signalgrass plant response rating” value (surinam grass; [8]) was 5, the “B. signalgrass plant response rating” value (surinam grass; [9]) was 0 and the “B. signalgrass plant response rating” value (surinam grass; Rate 500 g/ha, Postemergence, scale of 0 to 10 where 0 is no effect and 10 is complete control) was 4. For the same compound, the “Velvetleaf plant response rating” value (velvetleaf; [10]) was 0, the “Velvetleaf plant response rating” value (velvetleaf; [5]) was 0 and the “Velvetleaf plant response rating (0 to 10 scale)” value (velvetleaf; [11]) was 2. For the same compound, the “Plant response rating, Velvetleaf” value (velvetleaf; [12]) was 4, the “Velvetleaf plant response rating” value (velvetleaf; [8]) was 5 and the “Velvetleaf plant response rating” value (velvetleaf; [13]) was 0. For the same compound, the “Plant response rating, Velvetleaf” value (velvetleaf; [14]) was 1, the “Velvetleaf plant response rating” value (velvetleaf; [15]) was 1 and the “Giant foxtail plant response rating” value (giant foxtail; [10]) was 7. The “Giant foxtail plant response rating” value (giant foxtail; [4]) was 7, the “Giant foxtail plant response rating” value (giant foxtail; [5]) was 8 and the “Plant response rating, Giant foxtail” value (giant foxtail; [6]) was 10. For the same compound, the “Plant response rating, Giant foxtail” value (giant foxtail; [7]) was 10, the “Giant foxtail plant response rating” value (giant foxtail; [8]) was 10 and the “Giant foxtail plant response rating” value (giant foxtail; [13]) was 2. For the same compound, the “Giant foxtail plant response rating” value (giant foxtail; [15]) was 8, the “Rice plant response rating” value (rice; [16]) was 0 and the “Rice plant response rating” value (rice; [17]) was 0. For the same compound, the “Plant response rating, Rice” value (rice; [18]) was 0, the “Rice plant response rating” value (rice; [2]) was 0 and the “Cocklebur plant response rating” value (cocklebur; [10]) was 1. For the same compound, the “Cocklebur plant response rating” value (cocklebur; [4]) was 2, the “Cocklebur plant response rating” value (cocklebur; [5]) was 0 and the “Plant response rating, Cocklebur” value (cocklebur; [6]) was 0. The “Plant response rating, Cocklebur” value (cocklebur; [7]) was 0, the “Cocklebur plant response rating” value (cocklebur; [8]) was 0 and the “Cocklebur plant response rating” value (cocklebur; [13]) was 0. For the same compound, the “Cocklebur plant response rating” value (cocklebur; [15]) was 2, the “Rape plant response rating” value (rape; [10]) was 2 and the “Rape plant response rating” value (rape; [4]) was 3. For the same compound, the “Rape plant response rating” value (rape; [5]) was 0, the “Plant response rating, Rape” value (rape; [6]) was 0 and the “Plant response rating, Rape” value (rape; [7]) was 0. For the same compound, the “Rape plant response rating” value (rape; [8]) was 5, the “Rape plant response rating” value (rape; [13]) was 2 and the “Rape plant response rating” value (rape; [15]) was 4. For the same compound, the “Sugarbeets plant response rating” value (sugar beet; [10]) was 2, the “Sugarbeets plant response rating” value (sugar beet; [5]) was 0 and the “Sugarbeets plant response rating (0 to 10 scale)” value (sugar beet; [11]) was 0. The “Plant response rating, Sugarbeets” value (sugar beet; [12]) was 0, the “Sugarbeets plant response rating” value (sugar beet; [8]) was 0 and the “Sugarbeets plant response rating” value (sugar beet; [13]) was 2. For the same compound, the “Plant response rating, Sugarbeets” value (sugar beet; [14]) was 3, the “Sugarbeets plant response rating” value (sugar beet; [15]) was 3 and the “S. Flatsedge plant response rating” value (smallflower flatsedge; [16]) was 0. For the same compound, the “S. Flatsedge plant response rating” value (smallflower flatsedge; [17]) was 0, the “Plant response rating, S. Flatsedge” value (smallflower flatsedge; [18]) was 0 and the “S. Flatsedge plant response rating” value (smallflower flatsedge; [2]) was 0. The “Soybean plant response rating” value (soybean; [10]) was 4, the “Soybean plant response rating” value (soybean; [5]) was 0 and the “Plant response rating, Soybean” value (soybean; [6]) was 0. The “Plant response rating, Soybean” value (soybean; [7]) was 0, the “Soybean plant response rating” value (soybean; [8]) was 4 and the “Soybean plant response rating” value (soybean; [13]) was 4. The “Plant response rating, Soybean” value (soybean; Rate 250 g/ha, Postemergence, scale 0 to 10, 0 is no effect, 10 is complete control) was 4, the “Soybean plant response rating” value (soybean; [15]) was 7 and the “Corn plant response rating” value (corn; [10]) was 0. For the same compound, the “Corn plant response rating” value (corn; [4]) was 0, the “Corn plant response rating” value (corn; [5]) was 0 and the “Plant response rating, Corn” value (corn; [6]) was 0. For the same compound, the “Plant response rating, Corn” value (corn; [7]) was 0, the “Corn plant response rating” value (corn; [8]) was 2 and the “Corn plant response rating” value (corn; [13]) was 0. For the same compound, the “Corn plant response rating” value (corn; [15]) was 0, the “Crabgrass plant response rating” value (crabgrass; [10]) was 4 and the “Crabgrass plant response rating” value (crabgrass; [4]) was 4. The “Crabgrass plant response rating” value (crabgrass; [5]) was 5, the “Plant response rating, Crabgrass” value (crabgrass; [6]) was 6 and the “Plant response rating, Crabgrass” value (crabgrass; [7]) was 10. For the same compound, the “Crabgrass plant response rating” value (crabgrass; [8]) was 10, the “Crabgrass plant response rating” value (crabgrass; [13]) was 0 and the “Crabgrass plant response rating” value (crabgrass; [15]) was 9. The “Nutsedge plant response rating” value (purple nutsedge; [10]) was 0, the “Nutsedge plant response rating” value (purple nutsedge; [4]) was 0 and the “Nutsedge plant response rating” value (purple nutsedge; [5]) was 0. For the same compound, the “Plant response rating, Nutsedge” value (purple nutsedge; [6]) was 0, the “Plant response rating, Nutsedge” value (purple nutsedge; [7]) was 0 and the “Nutsedge plant response rating” value (purple nutsedge; [8]) was 0. The “Nutsedge plant response rating” value (purple nutsedge; [13]) was 0, the “Nutsedge plant response rating” value (purple nutsedge; [15]) was 0 and the “Blackgrass plant response rating” value (blackgrass; [10]) was 4. For the same compound, the “Blackgrass plant response rating” value (blackgrass; [4]) was 5, the “Blackgrass plant response rating” value (blackgrass; [5]) was 0 and the “Plant response rating, Blackgrass” value (blackgrass; [6]) was 0. For the same compound, the “Plant response rating, Blackgrass” value (blackgrass; [7]) was 2, the “Blackgrass plant response rating” value (blackgrass; [8]) was 5 and the “Blackgrass plant response rating” value (blackgrass; [13]) was 0. For the same compound, the “Blackgrass plant response rating” value (blackgrass; [15]) was 7, the “Ducksalad plant response rating” value (duck salad; [16]) was 0 and the “Ducksalad plant response rating” value (duck salad; [17]) was 0. For the same compound, the “Ducksalad plant response rating” value (duck salad; [2]) was 0, the “Ducksalad plant response rating” value (duck salad; [3]) was 0 and the “Bedstraw plant response rating” value (bedstraw; [1]) was 0. The “Bedstraw plant response rating” value (bedstraw; [4]) was 7, the “Bedstraw plant response rating” value (bedstraw; [5]) was 0 and the “Plant response rating, Bedstraw” value (bedstraw; [6]) was 0. The “Plant response rating, Bedstraw” value (bedstraw; [7]) was 0, the “Bedstraw plant response rating” value (bedstraw; [8]) was 0 and the “Bedstraw plant response rating” value (bedstraw; [9]) was 0. For the same compound, the “Wheat plant response rating” value (wheat; [10]) was 0, the “Wheat plant response rating” value (wheat; [5]) was 0 and the “Wheat plant response rating (0 to 10 scale)” value (wheat; [11]) was 0. The “Plant response rating, Wheat” value (wheat; [12]) was 0, the “Wheat plant response rating” value (wheat; [8]) was 0 and the “Wheat plant response rating” value (wheat; [13]) was 0. For the same compound, the “Plant response rating, Wheat” value (wheat; [14]) was 0 and the “Wheat plant response rating” value (wheat; [15]) was 0.
